The NIST ThermoML archive (doi:10.1016/j.jct.2013.05.003)
± gives the expanded uncertainty stated by the source.

Experiments:
[1] = 101.3 kPa, Liquid, Sing-around technique in a fixed-path interferometer
[2] = xn = mol fraction of the nth substance listed; conditions: 283.15 K; 101.3 kPa; Liquid; fixed-path interferometer; x2 = 0

Row | Compound | speed of sound ([1]; 283.15 K) [m/s] | speed of sound ([1]; 288.15 K) [m/s] | speed of sound ([1]; 293.15 K) [m/s] | speed of sound ([1]; 298.15 K) [m/s] | speed of sound ([1]; 303.15 K) [m/s] | speed of sound [2] [m/s]
1 | CCOCCCN [3-ethoxy-1-propanamine] | 1386.4 ± 1.6 | 1364.2 ± 1.6 | 1342 ± 1.6 | 1321.2 ± 1.6 | 1300.4 ± 1.6 | 
2 | O [water] | 1447.3 ± 1.3 |  |  |  |  | 
3 | O [water] + CCOCCCN |  |  |  |  |  | 1447.3 ± 1.3
